In PubChem BioAssay AID284 (DTP/NCI, 2004):
Several values for one entry are separate records, joined by “and”; a condition that tells them apart may be missing. Identical values can stand only once. Toxic doses and inconclusive results are not listed. How the source made its calls: active means survival T/C of 150% or more; inactive means T/C below 125% in these data.

Test system: BDF1 mice, L1210/MTX-resistant leukemia ip, survival T/C
Test: NCI In Vivo Anticancer Drug Screen. Data for tumor model L1210 Leukemia resistant to Methotrexate; NSC 740 (intraperitoneal) in B6D2F1 (BDF1) mice
Details: endpoint: mean survival time, higher = longer survival
Protocol: The antitumor activity of compounds was measured in mice bearing transplantable tumors. Survival or tumor size were measured and the results are expressed as the measurement made in the treated group (T) divided by the measurement made in the vehicle treated control group (C). The tumor model used in this assay is L1210 Leukemia resistant to Methotrexate; NSC 740 (intraperitoneal) in B6D2F1 (BDF1) mice

Measured: T/C

Cn1cnc([N+](=O)[O-])c1Sc1nc(N)nc2nc[nH]c12
inactive: dose: 1.0 mg/kg/injection, schedule: Q01DX Z (ip), vehicle: methylcellulose (MC) 92 % of control | dose: 2.0 mg/kg/injection, schedule: Q01DX Z (ip), vehicle: methylcellulose (MC) 96 % of control | dose: 4.0 mg/kg/injection, schedule: Q01DX Z (ip), vehicle: methylcellulose (MC) 109 % of control

O=c1cn[nH]c(=O)[nH]1
inactive: dose: 125.0 mg/kg/injection, schedule: Q01DX010 (ip), vehicle: saline 93 % of control | dose: 250.0 mg/kg/injection, schedule: Q01DX010 (ip), vehicle: saline 91 % of control and 97 % of control | dose: 500.0 mg/kg/injection, schedule: Q01DX010 (ip), vehicle: saline 86 % of control and 90 % of control

Nc1ncnc2[nH]ncc12
inactive: dose: 1.5 mg/kg/injection, schedule: Q01DX010 (ip), vehicle: saline 91 % of control and 107 % of control | dose: 3.0 mg/kg/injection, schedule: Q01DX010 (ip), vehicle: saline 96 % of control and 102 % of control | dose: 6.0 mg/kg/injection, schedule: Q01DX010 (ip), vehicle: saline 99 % of control and 103 % of control | dose: 12.0 mg/kg/injection, schedule: Q01DX010 (ip), vehicle: saline 89 % of control

CN(C)c1nc(N(C)C)nc(N(C)C)n1
inactive: dose: 0.5 mg/kg/injection, schedule: Q01DX Z (ip), vehicle: other 93 % of control | dose: 1.0 mg/kg/injection, schedule: Q01DX Z (ip), vehicle: other 103 % of control | dose: 4.0 mg/kg/injection, schedule: Q01DX Z (ip), vehicle: other 109 % of control | dose: 18.8 mg/kg/injection, schedule: Q01DX010 (ip), vehicle: saline 109 % of control | dose: 37.5 mg/kg/injection, schedule: Q01DX010 (ip), vehicle: saline 105 % of control | dose: 75.0 mg/kg/injection, schedule: Q01DX010 (ip), vehicle: saline 93 % of control | dose: 87.5 mg/kg/injection, schedule: Q01DX Z (ip), vehicle: other 101 % of control | dose: 150.0 mg/kg/injection, schedule: Q01DX010 (ip), vehicle: saline 104 % of control | dose: 175.0 mg/kg/injection, schedule: Q01DX Z (ip), vehicle: other 94 % of control

Cc1c(O)ccc(=O)n1O
inactive: dose: 49.0 mg/kg/injection, schedule: Q01DX Z (ip), vehicle: other 98 % of control | dose: 73.0 mg/kg/injection, schedule: Q01DX Z (ip), vehicle: other 86 % of control | dose: 110.0 mg/kg/injection, schedule: Q01DX Z (ip), vehicle: other 114 % of control | dose: 165.0 mg/kg/injection, schedule: Q01DX Z (ip), vehicle: other 110 % of control | dose: 247.0 mg/kg/injection, schedule: Q01DX Z (ip), vehicle: other 96 % of control

C[C@]12CC[C@H](OC3OC(CO)C(O)C(O)C3O)C[C@H]1CC[C@@H]1[C@@H]2CC[C@]2(C)[C@@H](C3=CCOC3=O)CC[C@]12O (stereo not given in full)
inactive: dose: 1.0 mg/kg/injection, schedule: Q01DX Z (ip), vehicle: saline 86 % of control
